Values of other authors as cited in patent US20260374742A1, “METHODS OF PREPARING CARBAMATE DERIVATIVES” (NodThera Limited, priority 2022, published 2026).

Test system: NLRP3 inflammasome
Conditions: for inhibition of NLRP3 activation (in words): literature report

Row | Molecule | inhibition of NLRP3 activation (in words) | concentrations at which NLRP3 activation is inhibited (in words) (literature, concentrations unlikely attainable in vivo)
1 | O=[N+]([O-])C=Cc1ccc2c(c1)OCO2 [3,4-methylenedioxy-β-nitrostyrene] | impair NLRP3 activation | –
2 | NC[C@@H]1O[C@H](c2ccccc2)Cc2c1ccc(O)c2O [A-68930] | impair NLRP3 activation | –
3 | Cc1ccc(S(=O)(=O)/C=C/C#N)cc1 [Bay 11-7082] | impair NLRP3 activation | –
4 | CC(C)(O)c1coc(S(=O)(=O)NC(=O)Nc2c3c(cc4c2CCC4)CCC3)c1 [CP-456,773] | specific inhibitor of NLRP3 activation | –
5 | COc1ccc(Cl)cc1C(=O)NCCc1ccc(S(=O)(=O)NC(=O)NC2CCCCC2)cc1 [Glyburide] | specific inhibitor of NLRP3 activation | micromolar concentrations
6 | OC[C@H]1O[C@@H](c2ccc(Cl)c(Cc3ccc(O[C@H]4CCOC4)cc3)c2)[C@H](O)[C@@H](O)[C@@H]1O [epigliflozin] | impair NLRP3 activation | –
7 | CNCCC(Oc1ccc(C(F)(F)F)cc1)c1ccccc1 (stereo not shown) [fluoxetine] | impair NLRP3 activation | –
8 | OC(CNCC(O)C1CCc2cc(F)ccc2O1)C1CCc2cc(F)ccc2O1 (stereo not shown) [nebivolol] | impair NLRP3 activation | –
9 | C=C1C(=O)O[C@H]2[C@H]1CC/C(C)=C/CC[C@@]1(C)O[C@@H]21 [parthenolide] | impair NLRP3 activation | –
10 | O=c1c(O)c(-c2ccc(O)c(O)c2)oc2cc(O)cc(O)c12 [quercetin] | suppress NLRP3 activation | –
11 | C[S+]([O-])CCCCN=C=S (stereo not shown) [sulforaphane] | suppress NLRP3 activation | –
12 | salvianolic acid | suppress NLRP3 activation | –
